{"source": "patent US20070231828A1", "about": "“Methods of predicting behavior of cancers” (Johns Hopkins University, priority 2003, published 2007)", "key": {"[1]": {"tested_on": "AT2.1 subcutaneous tumors", "experiment": "Dunning rat prostate carcinoma xenografts in athymic mice", "format": "in vivo", "conditions": "s.c."}, "22RV1 xenograft tumors": {"tested_on": "22RV1 xenograft tumors", "conditions": "50 mg/kg daily s.c.", "experimental": "(§1) CWR22RV1 (n=14) and PC3tumor xenografts (n=20) were grown by injecting 0.1 ml of Hanks Balanced Salt Solution and Matrigel (1:1) (Beckton Dickinson, Franklin Lakes, N.J.) containing 2.5×10^6 cells subcutaneously at each of two locations (right anterior and posterior flank) per athymic mouse. […] Animals were euthanized and tumors harvested for Ki-67 staining. […] Mice were observed daily for distress and experiments were carried out according to approved institutional protocols. Individual tumor volumes were plotted and regression curves were generated using analysis software to determine individual tumor growth rates."}, "PC3 xenograft tumors": {"tested_on": "PC3 xenograft tumors", "conditions": "50 mg/kg daily s.c.", "experimental": "as §1"}, "AT6.3 cells [2]": {"tested_on": "AT6.3 cells", "experiment": "Quantitative RT-PCR of transcripts", "format": "cell-based, rat", "description": "(§2) Amplification of Hh pathway components was normalized in qRT-PCR experiments to that of endogenous phosphoglycerate kinase in each sample. Oligonucleotide primers used in quantitative reeal-time and conventional amplification of reverse transcribed mRNA (RT-PCR) are shown in Table 4."}, "22RV1-GLI cells": {"tested_on": "22RV1-GLI cells", "experiment": "In vitro Matrigel invasion assay", "format": "cell-based, human", "description": "(§3) Cells reaching the lower chamber were counted according to the manufacturer's protocol. Results were normalized to viable cell mass assayed as described above."}, "22RV1 cells": {"tested_on": "22RV1 cells", "experiment": "In vitro Matrigel invasion assay", "format": "cell-based, human", "description": "as §3"}, "[3]": {"tested_on": "human prostate cancer cell lines", "experiment": "Quantitative RT-PCR of transcripts", "format": "cell-based", "description": "as §2"}, "AT2.1-GLI cells": {"tested_on": "AT2.1-GLI cells", "experiment": "In vitro Matrigel invasion assay", "format": "cell-based, rat", "conditions": "3 μM pre-treatment 24 hours", "description": "as §3"}, "AT6.3 cells [4]": {"tested_on": "AT6.3 cells", "experiment": "In vitro Matrigel invasion assay", "format": "cell-based, rat", "conditions": "3 μM pre-treatment 24 hours, normalized to viable cell mass", "description": "as §3"}, "prostate epithelium": {"tested_on": "prostate epithelium", "experiment": "Prostate regeneration in castrated mice", "format": "in vivo, C57B16/J mice", "conditions": "castrates", "description": "Prostates were collected, weighed, and processed for histology."}, "[5]": {"tested_on": "AT6.3 subcutaneous tumors"}}, "note": "“Also recorded” adds a separate entry of the source. Like-named read-outs stand apart in the source and are kept apart here."}
{"smiles": "CC1=C2C[C@H]3[C@@H](CC=C4C[C@@H](O)CC[C@@]43C)[C@@H]2CC[C@]12O[C@@H]1C[C@H](C)CN[C@H]1[C@H]2C", "note": "[cyclopamine]", "values": [{"measurement": "Median Survival", "setting": "[1]", "result": "No tumors"}, {"measurement": "time to complete regression of the tumors", "setting": "22RV1 xenograft tumors", "result": "20 to 24", "unit": "days"}, {"measurement": "time to complete regression of the tumors", "setting": "PC3 xenograft tumors", "result": "20 to 24", "unit": "days"}, {"measurement": "Snail expression", "setting": "AT6.3 cells [2]; AT6.3 cells", "result": "suppressed"}, {"measurement": "expression of E-cadherin transcripts", "setting": "AT6.3 cells [2]; rat metastasis-derived prostate cancer cell line", "result": "increased expression"}, {"measurement": "invasiveness", "setting": "22RV1-GLI cells", "result": "not affected"}, {"measurement": "invasiveness", "setting": "22RV1 cells", "result": "blocked"}, {"measurement": "expression of transcripts encoding c-myc", "setting": "[3]", "result": "reduced expression"}, {"measurement": "expression of transcripts encoding cyclin D1", "setting": "[3]", "result": "reduced expression"}, {"measurement": "transcription of the gene encoding Nestin", "setting": "[3]", "result": "suppressed transcription"}, {"measurement": "expression of E-cadherin transcripts", "setting": "[3]; human metastasis-derived prostate cancer cell lines", "result": "increased expression"}, {"measurement": "expression of Snail transcripts", "setting": "[3]; human prostate cancer cell lines", "result": "decreased expression"}, {"measurement": "expression of the metastasis suppressor Ndrgl", "setting": "[3]; human prostate cancer cells", "result": "increased expression"}, {"measurement": "invasiveness", "setting": "AT2.1-GLI cells", "result": "did not reduce the invasiveness"}, {"measurement": "reduction of invasiveness", "setting": "AT6.3 cells [4]", "result": "approximately nine-fold"}, {"measurement": "prostate regeneration", "setting": "prostate epithelium; DHT plus cyclopamine 50 mg/kg/day s.c. for 10 days", "result": "abolished prostate regeneration; also recorded: completely blocked prostate regeneration"}, {"measurement": "Growth rate (% tumor volume/day)", "setting": "[5]; i.p. 10 mg/kg", "result": "9.2 ± 2.4", "unit": "% tumor volume/day"}, {"measurement": "Median Survival", "setting": "[5]; i.p. 10 mg/kg/day", "result": 19, "unit": "days"}, {"measurement": "metastasis", "setting": "[5]; i.p. 10 mg/kg/day", "result": "inhibited metastasis"}, {"measurement": "time by which all animals were dead", "setting": "[5]; i.p. 10 mg/kg/day", "result": "≤ 26", "unit": "days"}, {"measurement": "Growth rate (% tumor volume/day)", "setting": "[5]; i.p. 50 mg/kg", "result": "4.9 ± 1.0", "unit": "% tumor volume/day"}, {"measurement": "Median Survival", "setting": "[5]; i.p. 50 mg/kg", "result": "No death"}, {"measurement": "metastasis", "setting": "[5]; i.p. 50 mg/kg/day", "result": "blocked metastasis"}, {"measurement": "death", "setting": "[5]; i.p. 50 mg/kg/day, 50 day treatment period", "result": "prevented death"}, {"measurement": "Median Survival", "setting": "[5]; s.c. 50 mg/kg", "result": "No tumors"}]}
{"smiles": "C[C@]12CCC(=O)C[C@@H]1CC[C@@H]1[C@@H]2CC[C@]2(C)[C@@H](O)CC[C@@H]12", "note": "[dihydrotestosterone]", "values": [{"measurement": "prostate regeneration", "setting": "prostate epithelium; 50 mg/kg/d for ten days after seven days of androgen withdrawal", "result": "re-growth of prostate of nearly normal size"}]}
